Values after ≈ are worked out from the molar mass of the structure shown. Starred links: 1 amine or outer side, 2 acyl side, 3 side chain; linkers in the order of their positions; H or OH if unused. Positions of bridges follow the written chain, without caps; N, C: chain ends. Non-standard residues stand in square brackets, D forms with d. Residues, ends and D or L forms follow the SMILES beside them. Chains are numbered I, II in the order given. Actinocin(9to1) = Cc1c2oc3c(C)ccc(C(=O)[*:1])c3nc-2c(C(=O)[*:2])c(N)c1=O; NMeV = CN[C@H](C(=O)O)C(C)C; Sar = CNCC(=O)O

The test system of series [1] is Human monocytic cells, THP-1. Briefly: LPS-induced TNFα secretion by THP-1 cells (ELISA).
The subject of series [2] is RAW 264.7 mouse macrophage cells. Type of series: cell-based. The following applies: 20 μg/ml; 1 μg/ml AraLAM. The procedure:
The ability of compounds to neutralize the stimulation of immune cells by both Gram-negative and Gram-positive bacterial products was tested. Bacterial products stimulate cells of the immune system to produce inflammatory cytokines and when unchecked this can lead to sepsis. Initial experiments utilized the murine macrophage cell line RAW 264.7, which was obtained from the American Type Culture Collection, (Manassas, Va.), the human epithelial cell line, A549, and primary macrophages derived from the bone marrow of BALB/c mice (Charles River Laboratories, Wilmington, Mass.). The cells from mouse bone marrow were cultured in 150-mm plates in Dulbecco's modified Eagle medium (DMEM; Life Technologies, Burlington, ON) supplemented with 20% FBS (Sigma Chemical Co, St. Louis, Mo.) and 20% L cell-conditioned medium as a source of M-CSF. Once macrophages were 60-80% confluent, they were deprived of L cell-conditioned medium for 14-16 h to render the cells quiescent and then were subjected to treatments with 100 ng/ml LPS or 100 ng/ml LPS+20 μg/ml peptide for 24 hours. The release of cytokines into the culture supernatant was determined by ELISA (R&D Systems, Minneapolis, Minn.). […] The samples were centrifuged for 5 min at 2000×g, the plasma was collected and then stored at −20° C. until being analyzed for IL-8 by ELISA (R&D Systems). […] Survival was monitored for 48 hours post injection.

The subject of series [3] is human bronchial epithelial cells (HBE). Briefly: LDH release assay (Cytotoxicity Detection Kit). It counts as cell-based. The following applies: 100 μg/ml, 24 hours; no peptide control 1.0 ± 0.05. Put shortly:
(§1)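 Both read-outs were colorimetric at OD490 on HBE cells after 24 h with 100 μg of each peptide. The WST-1 assay reported viability through mitochondrial dehydrogenase cleavage of the tetrazolium salt. The LDH assay tested the removed supernatant for enzyme leaked from membrane-damaged cells.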
In general terms: Release of lactate dehydrogenase indicates damage to the cell membrane.

The test system of series [4] is HBE cells. Briefly: WST-1 assay (cell viability). Type of series: cell-based, human. Put shortly:
as §1
For orientation: Tetrazolium assays rely on reduction of a dye to a coloured formazan, in cell work by metabolically active cells.

The subject of series [5] is NFκB subunits. Description: Translocation of NFκB subunits in nuclear extracts of THP-1 cells (Western blot, ELISA). Type of series: cell-based, human. The following applies: 60 min. (Immunoblotting shows a protein as a band on a membrane.)
Series [6] deals with THP-1 cells. Briefly: Quantitative real-time PCR (qPCR) in THP-1 cells. It counts as cell-based, human. The following applies: 4 μg/ml, within 1 hour of treatment (data not shown). The procedure: Quantitative real-time PCR (qPCR)—Differential gene expression identified by microarray analysis was validated using quantitative real-time PCR (qPCR) using SuperScriptTM III Platinum® Two-Step qRT-PCR Kit with SYBR® Green (Invitrogen Life Technologies), as per the manufacturer's instructions, in the ABI PRISMS® 7000 sequence detection system (Applied Biosystems, Foster city, Calif., USA). Briefly, 1 μg of total RNA was reverse transcribed in a 20 μl reaction volume for 50 min at 42° C., the reaction was terminated by incubating for 5 min at 85° C. and then digested for 30 min at 37° C. with RNAse H. The PCR reaction was carried out in a 12.5 μl reaction volume containing 2.5 μl of 1/10 diluted cDNA template. A melting curve was performed to ensure that any product detected was specific to the desired amplicon. Fold changes were calculated after normalization to endogenous GAPDH and using the comparative Ct method (Pfaffl MW. A new mathematical model for relative quantification in real-time RT-PCR. Nucleic Acids Res 2001; 29:No. 9 e45).

Series [7] concerns Human Jurkat T cells. Description: SDF-1 induced migration of human Jurkat T cells (Transwell). Type of series: cell-based. Conditions: positive control 100%. The procedure:
SDF-1, a C-X-C chemokine is a natural ligand for HIV-1 coreceptor-CXCR4. The chemokine receptors CXCR4 and CCR5 are considered to be potential targets for the inhibition of HIV-1 replication. […] The migration assays were performed as follows. Human Jurkat T cells were resuspended to 5×10^6/ml in chemotaxis medium (RPMI 1640/10 mM Hepes/0.5% BSA). Migration assays were performed in 24 well plates using […] polycarbonate Transwell inserts (Costar). Briefly, peptide or controls were diluted in chemotaxis medium and placed in the lower chamber while 0.1 ml cells (5×10^6/ml) was added to the upper chamber. After 3 hr at 37° C., the number of cells that had migrated into the lower chamber was determined using flow cytometry. The medium from the lower chamber was passed through a FACscan for 30 seconds, gating on forward and side scatter to exclude cell debris. The number of live cells was compared to a “100% migration control” in which 5×10^5/ml cells had been pipetted directly into the lower chamber and then counted on the FACscan for 30 seconds.

The format of series [8] is cell-based. The following applies: overnight, 96-well plate.
The subject of series [9] is HBE cells. The following applies: 50 μg/ml, 4 h.
Series [10] deals with THP-1 cells.

On to `CC[C@@]1([C@@H]2O[C@@H]([C@H]3O[C@@](O)(CO)[C@H](C)C[C@@H]3C)C[C@@H]2C)CC[C@H]([C@]2(C)CC[C@]3(C[C@H](O)[C@@H](C)[C@@H]([C@@H](C)[C@@H](OC)[C@H](C)C(=O)O)O3)O2)O1` [Monensin], for which the “TNFα within cells (cytoplasmic extracts)” value in series [1] (LPS stimulation for 60 min) is “accumulation of TNFα within cells”.
Polymyxin B: the “Inhibition of TNF-α” value in series [2] came to 15 ± 2%. Besides, the “LDH Release (OD490 nm)” value in series [3] worked out at 1.21 ± 0.03 OD490 nm. Moreover, in series [4], the “OD490 nm (WST-1 cell viability)” value is 1.30 ± 0.13 OD490 nm. Also, in [5], the “inhibition of LPS-induced p50 translocation” value is 82±5% and the “inhibition of LPS-induced p65 translocation” value was 80±90%.
For `Cc1c2oc3c(C)ccc(C(=O)N[C@@H]4C(=O)N[C@H](C(C)C)C(=O)N5CCC[C@H]5C(=O)N(C)CC(=O)N(C)[C@@H](C(C)C)C(=O)O[C@@H]4C)c3nc-2c(C(=O)N[C@@H]2C(=O)N[C@H](C(C)C)C(=O)N3CCC[C@H]3C(=O)N(C)CC(=O)N(C)[C@@H](C(C)C)C(=O)O[C@@H]2C)c(N)c1=O` [Actinomycin D] (I: T[dV]P[Sar][NMeV] / II: T[dV]P[Sar][NMeV]; ester I:1-I:C, II:1-II:C; linker I:N-II:N via Actinocin(9to1)), the “inhibition of LPS-induced transcription of TNFα and TNFAIP2 genes” value in [6] was “more than 96%”. For the same compound, the “reduction of TNFα release” value in series [1] (4 μg/ml, LPS-stimulated THP-1 cells) is 97.6%.
As for “SEQ 1D 1 (LLGDFFRKSKEKIGKEFKRIVQRIKDFLRNLVPRTES)”, the “Migration (%)” value in series [7] (Experiment 1, SDF-1 + peptide (50 μg/ml)) is on record as 0%; in series [7] (Experiment 2, SDF-1 + peptide (50 μg/ml)), 0%.
Turning to `CC[C@H](C)[C@H](NC(=O)[C@H](CCCCN)NC(=O)[C@H](CCC(=O)O)NC(=O)[C@H](CCCCN)NC(=O)[C@H](CO)NC(=O)[C@H](CCCCN)NC(=O)[C@H](CCCNC(=N)N)NC(=O)[C@H](Cc1ccccc1)NC(=O)[C@H](Cc1ccccc1)NC(=O)[C@H](CC(=O)O)NC(=O)CNC(=O)[C@H](CC(C)C)NC(=O)[C@@H](N)CC(C)C)C(=O)NCC(=O)N[C@@H](CCCCN)C(=O)N[C@@H](CCC(=O)O)C(=O)N[C@@H](Cc1ccccc1)C(=O)N[C@@H](CCCCN)C(=O)N[C@@H](CCCNC(=N)N)C(=O)N[C@H](C(=O)N[C@H](C(=O)N[C@@H](CCC(N)=O)C(=O)N[C@@H](CCCNC(=N)N)C(=O)N[C@H](C(=O)N[C@@H](CCCCN)C(=O)N[C@@H](CC(=O)O)C(=O)N[C@@H](Cc1ccccc1)C(=O)N[C@@H](CC(C)C)C(=O)N[C@@H](CCCNC(=N)N)C(=O)N[C@@H](CC(N)=O)C(=O)N[C@@H](CC(C)C)C(=O)N[C@H](C(=O)N1CCC[C@H]1C(=O)N[C@@H](CCCNC(=N)N)C(=O)N[C@H](C(=O)N[C@@H](CCC(=O)O)C(=O)N[C@@H](CO)C(=O)O)[C@@H](C)O)C(C)C)[C@@H](C)CC)C(C)C)[C@@H](C)CC` [SEQ ID NO: 1, reference compound], the “LDH Release (OD490 nm)” value in [3] is reported as 1.18 ± 0.05 OD490 nm. The “OD490 nm (WST-1 cell viability)” value in [4] came to 1.62 ± 0.34 OD490 nm. In addition, the “MIC, C. rhod.” value in series [8] (Citobacter rhodensis) amounted to 8 µg/mL (≈ 1.78 µM). In addition, the “MIC, EHEC” value in [8] (Enterohaemorrhagic E. coli) is 4 µg/mL (≈ 0.89 µM). Also, in series [8] (Escherichia coli), the “MIC, E. coli” value is 32 µg/mL (≈ 7.12 µM). The “MIC, P. aerug.” value in series [8] (Pseudomonas aeruginosa) is 96 µg/mL (≈ 21.4 µM). Moreover, the “MIC, S. typhim.” value in series [8] (Salmonella enteritidis ssp. typhimurium) was found to be 64 µg/mL (≈ 14.2 µM). In series [9], the “Ratio of SEQ ID NO: 1-treated:control, L41559 6-pyruvoyl-tetrahydropterin synthase/dimerization cofactor of hepatocyte nuclear factor 1 alpha” value was 0.20 and the “Ratio of SEQ ID NO: 1-treated:control, NM_000120 epoxide hydrolase 1, microsomal” value stood at 0.22. In addition, the cytotoxicity entry in series [10] is given as “not cytotoxic”.
In the case of SDF-1, the “Migration (%)” value in [7] (Experiment 1, SDF-1 (100 ng/ml) alone) came to 32%; in [7] (Experiment 2, SDF-1 (100 ng/ml) alone), 40%.

These data come from US20070134261A1, “Effectors of innate immunity” (priority 2001, published 2007).
